Reference: patent US20150291565A1, “INDOLE COMPOUNDS AND THEIR USE AS ANTIMICROBIALS” (Memorial Sloan-Kettering Cancer Center, priority 2012, published 2015)
≈ marks a conversion by molar mass, not a printed value. Like-named read-outs stand apart in the source and are kept apart here. Blank lines part the entries; values can stand above or below the compound they belong to.

Experiments:
MRSA = test: Disk diffusion assay, zone of inhibition, MRSA; type: cell-based, Staphylococcus aureus; settings: disk diffusion zone of inhibition
M. smegmatis (mc2155) = test: Disk diffusion assay, zone of inhibition, M. smegmatis; type: cell-based; settings: disk diffusion zone of inhibition
[1] = test system: S. pneumoniae ATCC 6301 (PSSP); test: Broth dilution MIC, S. pneumoniae ATCC 6301; type: cell-based; settings: for MIC: Streptococcus pneumoniae
[2] = test system: E. faecium ATCC 700221 (VRE); test: Broth dilution MIC, E. faecium ATCC 700221; type: cell-based
[3] = test system: E. faecalis ATCC 29212 (VRE); test: Broth dilution MIC, E. faecalis ATCC 29212; type: cell-based
[4] = test system: S. aureus ATCC 33591 (MRSA); test: Broth dilution MIC, S. aureus ATCC 33591; type: cell-based; settings: for MIC: Staphylococcus aureus
E. coli ECM 1694 = test: Broth dilution MIC, E. coli ECM 1694; type: cell-based; settings: for MIC: Escherichia coli
E. coli ATCC 25922 = test: Broth dilution MIC, E. coli ATCC 25922; type: cell-based; settings: for MIC: Escherichia coli
P. aeruginosa ATCC 9027 = test: Broth dilution MIC, P. aeruginosa ATCC 9027; type: cell-based; settings: for MIC: Pseudomonas aeruginosa
[5] = test system: S. aureus ATCC 29213 (MSSA); test: Broth dilution MIC, S. aureus ATCC 29213; type: cell-based; settings: for MIC: Staphylococcus aureus
K. pneumoniae ATCC 13883 = test: Broth dilution MIC, K. pneumoniae ATCC 13883; type: cell-based; settings: for MIC: Klebsiella pneumoniae
S. aureus BAA-39 (MDR) = test: Broth dilution MIC, S. aureus BAA-39; type: cell-based; settings: for MIC: Staphylococcus aureus, BAA39
K. pneumoniae ATCC 51503 = test: Broth dilution MIC, K. pneumoniae ATCC 51503; type: cell-based; settings: for MIC: Klebsiella pneumoniae
E. faecium CT-26 = test: Broth dilution MIC, E. faecium CT-26; type: cell-based; settings: for MIC: Enterococcus faecium
[6] = test system: S. pneumoniae ATCC 700674 (PRSP); test: Broth dilution MIC, S. pneumoniae ATCC 700674; type: cell-based; settings: for MIC: Streptococcus pneumoniae
C. albicans ATCC 14053 = test: Broth dilution MIC, C. albicans ATCC 14053; type: cell-based; settings: Candida albicans, ATCC14053; Table 1; range 64 down to 0.12 μg/ml
Procedure: In vitro Anti-bacterial & Anti-fungal Activity Assay: All test compounds were prepared as 6.4 mg/ml stock solutions in DMSO and further diluted according to the NCCLS M7-A6 (Page 5) document with sterile water or appropriate diluent. A working stock of 256 μg/ml was used to do 1:2 serial dilutions in 96-well plates. […] The inoculums were prepared by making a direct sterile water suspension of isolated colonies from 18 to 24 hr agar plates for all organisms (Mueller Hinton, Blood Agar or SDA plates). Each bacterial suspension was adjusted to read between 0.09 and 0.11 absorbance at 620 nm. […] These were further diluted 1/100 in appropriate broth for inoculating the 96-well plates. The C. albicans suspension was adjusted to read between 70 and 75% Transmittance at 530 nm and then diluted 1/500 in RPMI+MOPS broth. All aerobic bacterial and fungal plates were incubated for 18 hrs. at 35° C. […] Plates were read using a Beckman Automated Plate Reader at 650 nm. Readings were confirmed by visual examination of plates. (See Table 1, Table 2, Table 3, and Table 4). […] It is important to note that positive results against C. albicans are often indicative of broad spectrum antifungal activity, while negative results are not necessarily conclusory of a lack of activity against other fungus.

[7] = Table 4, broth dilution MIC according to CLSI standards (NAEJA)

SMILES: Nc1ccc(-c2cc3ccc(C4=NCCN4)cc3[nH]2)cc1 [Compound 398657]
Zone Size MRSA (MRSA): 8.3 mm | Zone Size M. smegmatis (M. smegmatis (mc2155)): 9.2 mm

MIC S. pneumoniae ATCC 6301 ([1]; Table 3, starting at 4 μg/ml): ≦0.008 mcg/ml | MIC PSSP S. pneumoniae ATCC 6301 [1, 7]: 0.015 µg/mL (≈ 0.0501 µM) | MIC E. faecium ATCC 700221 ([2]; Table 3, starting at 4 μg/ml): >4 µg/mL | MIC VRE E. faecium ATCC 700221 [2, 7]: >4 µg/mL | MIC E. faecalis ATCC 29212 ([3]; Table 3, starting at 4 μg/ml): 1 µg/mL (≈ 3.34 µM) | MIC VRE E. faecalis ATCC 29212 [3, 7]: 4 µg/mL (≈ 13.4 µM) | MIC S. aureus ATCC 33591 ([4]; Table 3, starting at 4 μg/ml): >4 µg/mL | MIC MRSA S. aureus ATCC 33591 [4, 7]: >4 µg/mL | MIC E. coli ECM 1694 (E. coli ECM 1694; Table 3, starting at 4 μg/ml): 0.5 µg/mL (≈ 1.67 µM) | MIC E. coli ECM 1694 (E. coli ECM 1694; [7]): 2 µg/mL (≈ 6.68 µM) | MIC E. coli ATCC 25922 (E. coli ATCC 25922; [7]): 1 µg/mL (≈ 3.34 µM) | MIC P. aeruginosa ATCC 9027 (P. aeruginosa ATCC 9027; [7]): 4 µg/mL (≈ 13.4 µM) | MIC S. aureus ATCC 29213 ([5]; Table 3, starting at 4 μg/ml): 0.016 µg/mL (≈ 0.0534 µM) | MIC MSSA S. aureus ATCC 29213 [5, 7]: 0.06 µg/mL (≈ 0.2 µM) | MIC K. pneumoniae ATCC 13883 (K. pneumoniae ATCC 13883; [7]): 2 µg/mL (≈ 6.68 µM) | MIC S. aureus BAA-39 (S. aureus BAA-39 (MDR); Table 3, starting at 4 μg/ml): 1 µg/mL (≈ 3.34 µM) | MIC MDR S. aureus BAA-39 (S. aureus BAA-39 (MDR); [7]): 4 µg/mL (≈ 13.4 µM) | MIC K. pneumoniae ATCC 51503 (K. pneumoniae ATCC 51503; [7]): 2 µg/mL (≈ 6.68 µM) | MIC E. faecium CT-26 (E. faecium CT-26; Table 3, starting at 4 μg/ml): >4 µg/mL | MIC E. faecium CT-26 (E. faecium CT-26; [7]): >4 µg/mL | MIC S. pneumoniae ATCC 700674 ([6]; Table 3, starting at 4 μg/ml): 0.06 µg/mL (≈ 0.2 µM) | MIC PRSP S. pneumoniae ATCC 700674 [6, 7]: 0.5 µg/mL (≈ 1.67 µM)
SMILES: C[C@@H](O)[C@H]1C(=O)N2C(C(=O)O)=C(SCCN=CN)C[C@H]12 [IMP, reference compound]

MIC ([1]; ATCC6301, Table 1, range 64 down to 0.12 μg/ml, read-out: MIC S. pneumoniae ATCC 6301): 2 µg/mL (≈ 5.67 µM) | MIC ([1]; ATCC6301, Table 2, broth dilution MIC in ug/ml, read-out: MIC S pneumonia ATCC 6301 PSSP): 2 µg/mL (≈ 5.67 µM) | MIC (C. albicans ATCC 14053): 16 µg/mL (≈ 45.4 µM) | MIC ([2]; Enterococcus faecium, Table 1, range 64 down to 0.12 μg/ml, read-out: MIC E. faecium ATCC 700221): 2 µg/mL (≈ 5.67 µM) | MIC ([2]; Table 2, broth dilution MIC in ug/ml, read-out: MIC E faecium ATCC 700221 VRE): 2 µg/mL (≈ 5.67 µM) | MIC ([3]; Enterococcus faecalis, Table 1, range 64 down to 0.12 μg/ml, read-out: MIC E. faecalis ATCC 29212): 2 µg/mL (≈ 5.67 µM) | MIC ([3]; Table 2, broth dilution MIC in ug/ml, read-out: MIC E faecalis ATCC 29212 VRE): 2 µg/mL (≈ 5.67 µM) | MIC ([4]; Table 1, range 64 down to 0.12 μg/ml, read-out: MIC S. aureus ATCC 33591): 4 µg/mL (≈ 11.3 µM) | MIC ([4]; Table 2, broth dilution MIC in ug/ml, read-out: MIC S aureus ATCC 33591 MRSA): 4 µg/mL (≈ 11.3 µM) | MIC (E. coli ECM 1694; ECM1694, Table 1, range 64 down to 0.12 μg/ml, read-out: MIC E. coli ECM 1694): 2 µg/mL (≈ 5.67 µM) | MIC (E. coli ECM 1694; ECM1694, Table 2, broth dilution MIC in ug/ml, read-out: MIC E. coli ECM 1693): 2 µg/mL (≈ 5.67 µM) | MIC (E. coli ATCC 25922; ATCC 25921 / ATCC 25922, Table 2, broth dilution MIC in ug/ml, read-out: MIC E. coli ATCC 25921): 16 µg/mL (≈ 45.4 µM) | MIC (E. coli ATCC 25922; ATCC25922, Table 1, range 64 down to 0.12 μg/ml, read-out: MIC E. coli ATCC 25922): 16 µg/mL (≈ 45.4 µM) | MIC (P. aeruginosa ATCC 9027; ATCC 9026 / ATCC 9027, Table 2, broth dilution MIC in ug/ml, read-out: MIC P aeruginosa ATCC 9026): 64 µg/mL (≈ 182 µM) | MIC (P. aeruginosa ATCC 9027; ATCC9027, Table 1, range 64 down to 0.12 μg/ml, read-out: MIC P. aeruginosa ATCC 9027): 64 µg/mL (≈ 182 µM) | MIC ([5]; Table 1, range 64 down to 0.12 μg/ml, read-out: MIC S. aureus ATCC 29213): 8 µg/mL (≈ 22.7 µM) | MIC ([5]; Table 2, broth dilution MIC in ug/ml, read-out: MIC S aureus ATCC 29213 MSSA): 8 µg/mL (≈ 22.7 µM) | MIC (K. pneumoniae ATCC 13883; ATCC13883, Table 1, range 64 down to 0.12 μg/ml, read-out: MIC K. pneumoniae ATCC 13883): 32 µg/mL (≈ 90.8 µM) | MIC (K. pneumoniae ATCC 13883; ATCC13883, Table 2, broth dilution MIC in ug/ml, read-out: MIC K pneumonia ATCC 13883): 32 µg/mL (≈ 90.8 µM) | MIC (S. aureus BAA-39 (MDR); Table 1, range 64 down to 0.12 μg/ml, read-out: MIC S. aureus BAA-39): 4 µg/mL (≈ 11.3 µM) | MIC (S. aureus BAA-39 (MDR); Table 2, broth dilution MIC in ug/ml, read-out: MIC S aureus BAA-39 MDR): 4 µg/mL (≈ 11.3 µM) | MIC (K. pneumoniae ATCC 51503; ATCC51503, Table 1, range 64 down to 0.12 μg/ml, read-out: MIC K. pneumoniae ATCC 51503): 64 µg/mL (≈ 182 µM) | MIC (K. pneumoniae ATCC 51503; ATCC51503, Table 2, broth dilution MIC in ug/ml, read-out: MIC K pneumonia ATCC 51503): 64 µg/mL (≈ 182 µM) | MIC (E. faecium CT-26; CT26, Table 1, range 64 down to 0.12 μg/ml, read-out: MIC E. faecium CT-26): 2 µg/mL (≈ 5.67 µM) | MIC (E. faecium CT-26; CT26, Table 2, broth dilution MIC in ug/ml, read-out: MIC E faecium CT-25): 2 µg/mL (≈ 5.67 µM) | MIC ([6]; Table 1, range 64 down to 0.12 μg/ml, read-out: MIC S. pneumoniae ATCC 700674): 4 µg/mL (≈ 11.3 µM) | MIC ([6]; Table 2, broth dilution MIC in ug/ml, read-out: MIC S pneumonia ATCC 700674 PRSP): 4 µg/mL (≈ 11.3 µM)
SMILES: c1ccc(Nc2ccc(-c3cc4ccc(C5=NCCN5)cc4[nH]3)cc2)cc1 [SKI-2]
Zone Size MRSA (MRSA): 10 mm | Zone Size M. smegmatis (M. smegmatis (mc2155)): 14.3 mm
